The structures appear in SMILES notation.

For series [1], the target named is T1, ABCG2 (Homo sapiens, UniProt Q9UNQ0).
T1 sequence (Q9UNQ0 1-655): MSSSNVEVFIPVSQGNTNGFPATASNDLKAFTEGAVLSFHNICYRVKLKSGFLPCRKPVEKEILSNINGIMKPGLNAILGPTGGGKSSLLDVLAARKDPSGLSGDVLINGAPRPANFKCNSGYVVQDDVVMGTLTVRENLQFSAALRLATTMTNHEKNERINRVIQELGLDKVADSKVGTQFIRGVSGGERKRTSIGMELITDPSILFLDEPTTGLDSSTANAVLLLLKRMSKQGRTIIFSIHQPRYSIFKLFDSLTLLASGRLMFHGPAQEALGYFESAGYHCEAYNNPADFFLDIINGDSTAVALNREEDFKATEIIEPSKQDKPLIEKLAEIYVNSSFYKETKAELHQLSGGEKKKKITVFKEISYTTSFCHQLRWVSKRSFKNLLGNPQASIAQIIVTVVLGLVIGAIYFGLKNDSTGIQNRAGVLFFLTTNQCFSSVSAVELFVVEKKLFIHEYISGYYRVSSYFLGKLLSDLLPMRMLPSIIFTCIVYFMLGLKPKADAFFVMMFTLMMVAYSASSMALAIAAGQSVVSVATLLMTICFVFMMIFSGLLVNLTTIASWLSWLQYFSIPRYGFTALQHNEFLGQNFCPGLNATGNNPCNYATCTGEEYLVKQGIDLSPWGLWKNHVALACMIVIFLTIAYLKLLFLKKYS
Description: vanadate-sensitive ATPase assay in ABCG2 membranes (stimulation up to […]); also inhibition of [3H]-mitoxantrone efflux at […]. The series is classed as cell-based. Further details: full-length human ABCG2 in membranes of transfected HEK293 cells. The settings on record: read-out: vanadate-sensitive ATPase assay in ABCG2 membranes (stimulation up to 4.3-fold).

The target in series [2] is T1, ABCG2. In words: vanadate-sensitive ATPase assay in ABCG2 membranes (stimulation). The series is classed as cell-based. Further details: full-length human ABCG2 in membranes of transfected HEK293 cells.
Series [3] deals with T1, ABCG2.

With `Cc1ccc(NC(=O)c2cccc(C(C)(C)C#N)c2)cc1Nc1ccc2ncn(C)c(=O)c2c1` [AZ-628], the maximal fold induction on ABCG2 [1] was determined as 4.3.

As for `COc1ccc([C@@H](O)c2cc(-c3ncnc4cc(N5CCOCC5)ccc34)c(F)cc2Cl)nn1` [M3814], on ABCG2 [2], the “vanadate-sensitive ATPase assay in ABCG2 membranes (stimulation)” value is “The results showed that AZ-628 stimulated ABCG2 ATPase to a higher level than M3814”.

As to `O=C1c2c(O)ccc(O)c2C(=O)c2c(NCCNCCO)ccc(NCCNCCO)c21` [mitoxantrone], at ABCG2 [3], the “[3H]-mitoxantrone efflux from ABCG2-overexpressing cells” value is “plotted to reflect the efflux of [^3H]-mitoxantrone by ABCG2”. `CC[C@@]1(O)C(=O)OCc2c1cc1n(c2=O)Cc2cc3c(CN(C)C)c(O)ccc3nc2-1` [topotecan]: the “vanadate-sensitive ATPase assay in ABCG2 membranes (stimulation)” value on ABCG2 [2] is listed as “Compared with the ABCG2 substrate topotecan, which is also an ABCG2 ATPase stimulator, AZ-628 showed stronger activation effects”.

The values are drawn from article PMC7753047, “Reversal of Cancer Multidrug Resistance (MDR) Mediated by ATP-Binding Cassette Transporter G2 (ABCG2) by AZ-628, a RAF Kinase Inhibitor” (Frontiers in Cell and Developmental Biology, 2020).
